Experimental findings from patent publication US6946458B2, “N-thiolated beta-lactams: novel antibacterial agents for methicillin-resistant Staphylococcus aureus” (University of South Florida, priority 1999, dated 2005) are described below.

Read-outs that look alike come from different tables or passages of the source.

Test [1] deals with MRSA USF652. The experiment in a line: Kirby-Bauer agar disk diffusion. On the set-up: Kirby-Bauer Disc Diffusion Test Results: unit not given here. The note with it: for zone of inhibition at 20 µg/disc: Staphylococcus aureus, MRSA. The format is cell-based, Staphylococcus aureus. The method, boiled down:
(§1)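 6-mm disks, 20 μg compound each, air-dried, on agar seeded with β-lactamase-positive MRSA isolate; inhibition zone diameter in mm at 24 h, average of triplicates.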

Test [2] concerns MRSA USF654. Put plainly: Kirby-Bauer agar disk diffusion. The format is cell-based, Staphylococcus aureus. On the set-up: Kirby-Bauer Disc Diffusion Test Results: unit not given here. The note with it: for zone of inhibition at 20 µg/disc: Staphylococcus aureus, MRSA. The method, boiled down: as §1
Test [3] relates to MRSA USF658. The experiment in a line: Kirby-Bauer agar disk diffusion. Further details: Kirby-Bauer Disc Diffusion Test Results: unit not given here. The note with it: for zone of inhibition at 20 µg/disc: Staphylococcus aureus, MRSA. The format is cell-based, Staphylococcus aureus. The method, boiled down: as §1
Test [4] has as its system S. simulans (ATCC 11631). The experiment in a line: Kirby-Bauer agar disk diffusion. The test is classed as cell-based, Staphylococcus simulans. To be noted: 6-mm disks, 20 μg test compound. The method, boiled down: (§2)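 Agar disk diffusion used 6-mm air-dried disks carrying 20 μg of compound. Values are mean diameters (mm) of the growth-inhibition zone at 24 h, from triplicate experiments. S. epidermidis and S. simulans were clinical isolates.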

For test [5], the system named is S. saprophyticus (ATCC 3552). Put plainly: Kirby-Bauer agar disk diffusion. The format is cell-based, Staphylococcus saprophyticus. The note with it: 6-mm disks, 20 μg test compound. The method, boiled down: as §2
The test system of test [6] is N. gonorrhoeae. Put plainly: Kirby-Bauer agar disk diffusion. The format is cell-based, Neisseria gonorrhoeae. To be noted: Neisseria gonorrhoeae; Table 1; 6-mm disks, 20 μg test compound, 24 h, triplicate; β-lactamase positive; read-out: zone of growth inhibition, average diameter. The method, boiled down:
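β-lactamase-positive N. gonorrhoeae on agar plates with 6-mm disks loaded with 20 μg compound; zone diameter of growth inhibition (mm) read after 24 h, averaged over triplicate experiments.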

In test [7] the test system is cultures of S. aureus and MRSA. Put plainly: electron microscopy of cell morphology. The format is cell-based, Staphylococcus aureus. To be noted: Example 1; electron microscopy, high magnification. From the text:
The structure-bioactivity patterns observed for these N-thiolated lactams are highly atypical for a β-lactam antibiotic. The compounds are lipohilic and devoid of the typical acidic ring functionality required for recognition by the penicillin binding proteins. The implication that the lactams set forth in FIGS. 1A-1I are not acting in the same manner or on the same enzymes as the traditional β-lactam drugs is supported by electron microscopy experiments, which confirm that cell morphology is unaffected by the lactam of FIG. 1D (Greenwood, D. et al. Science, 1969, 163:1076).
(§3) In fact, only small isolated colonies of surviving cells can be found, all of which appear perfectly normal in size, shape, smoothness, and clustering behavior. […] Pulse radiolabeling experiments indicate that the lactam of FIG. 1D blocks the bacterial uptake of ^3H-uridine and ^3H-leucine at low (MIC) levels (Lim, D. V. et al. Microbiology, 1977, 33:328; Champney, W. S. and C. G. Tober Antimicrob. Agents and Chemother., 2000, 44:1413).
Light microscopy and scanning electron microscopy experiments have enabled us to look for cell wall damage in cultures of S. aureus and MRSA grown in the presence of N-methylthio lactam (FIG. 11F) over a range of different concentrations and cell growth conditions. […] Those cells that survive the treatment appear normal (coccal) and fully mature.

The test system of test [8] is MRSA cells. The experiment in a line: light microscopy after Gram staining. The format is cell-based, Staphylococcus aureus.
Source text: as §3
(FIGS. 14A-14C) S. aureus is a Gram-positive microorganism, and thus reacts with Gram stain to produce a purple coloration due to binding of the stain to the peptidoglycan. 100% of MRSA cells grown either in the absence or presence of the lactam of FIG. 11F take on a purple color when Gram stained (top and center images, next page). In contrast, for MRSA cells treated with penicillin G or vancomycin (cell wall synthesis inhibitors), only about 30% of the cells are Gram-stained purple, with the remainder of the cells appearing pink (bottom image, next page) due to morphologically altered walls. This is strong evidence that the N-methylthio lactams are not affecting late stage events in cell wall biosynthesis.

Where [9] appears, read: Table 1, 6-mm disks, 20 μg test compound, 24 h, triplicate, read-out: zone of growth inhibition, average diameter.
Where [10] appears, read: Table 4, 20 μg disk loading, read-out: Zones of Inhibition.
Where [11] appears, read: Table 6, 20 μg disk loading, read-out: The Zone of Inhibition.
The mark [12] stands for this setting: Table 3, 6-mm disks, 20 μg test compound, 24 hours.
Setting [13] is: Table 5, beta-lactamase producing strain.

For the molecule `CC1(C)S[C@@H]2[C@H](NC(=O)Cc3ccccc3)C(=O)N2[C@H]1C(=O)O` [PenG, penicillin G, reference compound], the zone of inhibition at 20 µg/disc in test [1] (setting [9]) is 8 mm; in test [1] (setting [10]), 8 mm; in test [1] (setting [11]), 8 mm; in test [2] (setting [9]), 10 mm; in test [2] (setting [10]), 9 mm; in test [2] (setting [11]) it was 9 mm. The zone of inhibition at 20 µg/disc in test [3] (setting [9]) was 19 mm; in test [3] (setting [10]) it was 19 mm; in test [3] (setting [11]) it was 18 mm; in test [4] (Staphylococcus simulans, ATCC11631, Table 1, 24 h, triplicate, read-out: zone of growth inhibition, average diameter), 13 mm; in test [5] (Staphylococcus saprophyticus, ATCC3552, Table 1, 24 h, triplicate, read-out: zone of growth inhibition, average diameter), 30 mm; in test [6], 0 mm. Besides, the “zone of growth inhibition, average diameter” value in test [1] (setting [12]) is on record as 8 mm; in test [2] (setting [12]), 10 mm; in test [3] (setting [12]), 19 mm; in test [4] (Table 3, 24 hours), 13 mm; in test [5] (Table 3, 24 hours), 30 mm. In addition, the “Kirby-Bauer Disc Diffusion Test Results” value in test [1] (setting [13]) is given as 8; in test [2] (setting [13]) it was 10; in test [3] (setting [13]), 18. Also, the cell morphology result in test [7] was “wrinkled, deformed, or even sheared”. In addition, the “coloration upon Gram staining” value in test [8] (Example 1) was “pink coloration”. In test [8] (Example 5, MRSA cells grown in presence of the substance), the “cells Gram-stained purple” value is “about 30%”.
